Results: patent publication US11000033B2, “Ketone or oxime compound, and herbicide” (NISSAN CHEMICAL CORPORATION, priority 2014, dated 2021)

What was measured:
Assay type in all cases: in vivo
Amaranthus retroflexus = assay: Test Example 5: herbicidal effect by foliage application, plastic box (symbol N); settings: 320 g/ha, 3 weeks after application
How it was run: (§1)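 Greenhouse foliar test: seedlings at 14 days, grown 25° C. to 30° C. in sterilized diluvial soil; compound applied as an aqueous dilution of an emulsion; response read 3 weeks after spraying.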

Abutilon theophrasti = assay: Test Example 4: herbicidal effect by soil treatment (symbol M); settings: for M (Abutilon theophrasti) herbicidal effect grade / Herbicidal effect grade, M: Abutilon theophrasti: application herbicide amount 320 g/ha; for M: Abutilon theophrasti, herbicidal effect grade: 320 g/ha
How it was run: (§2)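 Seeds were sown in sterilized diluvial soil, covered with about 1.5 cm of soil, and the soil surface was sprayed with a water-diluted emulsion of the compound at a predetermined rate. Plants grew in a greenhouse at 25° C. to 30° C.; effects were scored visually 3 weeks after application.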

[1] = test system: Echinochloa crus-galli var. crus-galli; assay: Test Example 4: herbicidal effect by soil treatment (symbol H); settings: for H (Echinochloa crus-galli var. crus-galli) herbicidal effect grade / Herbicidal effect grade, H: Echinochloa crus-galli var. crus-galli: application herbicide amount 320 g/ha; for H: Echinochloa crus-galli var. crus-galli, herbicidal effect grade: 320 g/ha
How it was run: as §2

Lolium multiflorum Lam. = assay: Test Example 5: herbicidal effect by foliage application, plastic box (symbol K); settings: 320 g/ha, 3 weeks after application
How it was run: as §1

Apera spica-venti = assay: Test Example 5: herbicidal effect by foliage application, plastic box (symbol L); settings: 320 g/ha, 3 weeks after application
How it was run: as §1

rice plant = assay: Test Example 5: effect on crop by foliage application, plastic box (symbol b); settings: 320 g/ha, 3 weeks after application
How it was run: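 Crop and weed seeds sown in spots in sterilized diluvial soil in plastic boxes and covered with about 1.5 cm soil. Plants raised in a greenhouse at 25° C. to 30° C. for foliar application.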

Scirpus juncoides = assay: Test Example 1: herbicidal activity, application before weed generation in submerged conditions (symbol B); settings: application herbicide amount 320 g/ha
How it was run: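 In a flooded pot test with alluvial soil, the emulsion-formulated compound was diluted with water to a predetermined amount and applied to the floodwater immediately on the sowing day. Pots were held in a greenhouse at 25–30 °C for 3 weeks before each weed was rated.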

Chenopodium album = assay: Test Example 4: herbicidal effect by soil treatment (symbol O); settings: application herbicide amount 320 g/ha
How it was run: as §2

| SMILES | N: Amaranthus retroflexus, herbicidal effect grade (Amaranthus retroflexus) | M (Abutilon theophrasti) herbicidal effect grade (Abutilon theophrasti) | H (Echinochloa crus-galli var. crus-galli) herbicidal effect grade [1] | K: Lolium multiflorum Lam., herbicidal effect grade (Lolium multiflorum Lam.) | L: Apera spica-venti, herbicidal effect grade (Apera spica-venti) | b: directly sowed rice plant, effect on crop grade (rice plant) | Herbicidal effect grade, B: Scirpus juncoides (Scirpus juncoides) | N: Amaranthus retroflexus, herbicidal effect (criteria 0-5) (Amaranthus retroflexus) | K: Lolium multiflorum Lam., herbicidal effect (criteria 0-5) (Lolium multiflorum Lam.) | L: Apera spica-venti, herbicidal effect (criteria 0-5) (Apera spica-venti) | b: directly sowed rice plant, effect on crop (criteria 0-5) (rice plant) | M: Abutilon theophrasti, herbicidal effect grade (Abutilon theophrasti) | H: Echinochloa crus-galli var. crus-galli, herbicidal effect grade [1] | N: Amaranthus retroflexus, herbicidal effect (criteria of Test Example 1) (Amaranthus retroflexus) | Herbicidal effect grade, M: Abutilon theophrasti (Abutilon theophrasti) | Herbicidal effect grade, H: Echinochloa crus-galli var. crus-galli [1] | K: Lolium multiflorum Lam., herbicidal effect (criteria of Test Example 1) (Lolium multiflorum Lam.) | L: Apera spica-venti, herbicidal effect (criteria of Test Example 1) (Apera spica-venti) | b: directly sowed rice plant, effect on crop (criteria of Test Example 1) (rice plant) | Herbicidal effect grade, O: Chenopodium album (Chenopodium album) |
| --- | --- | --- | --- | --- | --- | --- | --- | --- | --- | --- | --- | --- | --- | --- | --- | --- | --- | --- | --- | --- |
| CON=C(C)CC1CC(OC(=O)COc2ccc(OC)cc2)=C(c2c(C)cc(C)cc2C)C1=O (stereo not drawn) [1-069] | 5 (Herbicidal ratio of 90% or more (almost completely withered)) | 4 (Herbicidal ratio of 70% or higher and lower than 90%) | 5 (Herbicidal ratio of 90% or more (almost completely withered)) | 5 (Herbicidal ratio of 90% or more (almost completely withered)) | 5 (Herbicidal ratio of 90% or more (almost completely withered)) | 5 (Herbicidal ratio of 90% or more (almost completely withered)) | 4 (Herbicidal ratio of 70% or higher and lower than 90%) |  |  |  |  |  |  |  |  |  |  |  |  |  |
| CON=C(C)CC1CC(OC(=O)COc2ccc(F)cc2)=C(c2c(C)cc(C)cc2C)C1=O (stereo not drawn) [1-073] |  | 5 (Herbicidal ratio of 90% or more (almost completely withered)) | 5 (Herbicidal ratio of 90% or more (almost completely withered)) |  |  |  | 5 (Herbicidal ratio of 90% or more (almost completely withered)) | 2 (Herbicidal ratio of 20% or higher and lower than 40%) | 5 (Herbicidal ratio of 90% or more (almost completely withered)) | 5 (Herbicidal ratio of 90% or more (almost completely withered)) | 5 (Herbicidal ratio of 90% or more (almost completely withered)) |  |  |  |  |  |  |  |  |  |
| CON=C(CC1CC(O)=C(c2c(C)cc(C)cc2C)C1=O)C1CCCC1 (stereo not drawn) [1-078] |  |  |  |  |  |  | 2 (Herbicidal ratio of 20% or higher and lower than 40%) | 0 (Herbicidal ratio of 5% or lower (almost no effect)) | 5 (Herbicidal ratio of 90% or more (almost completely withered)) | 3 (Herbicidal ratio of 40% or higher and lower than 70%) | 5 (Herbicidal ratio of 90% or more (almost completely withered)) | 0 (Herbicidal ratio of 5% or lower (almost no effect)) | 2 (Herbicidal ratio of 20% or higher and lower than 40%) |  |  |  |  |  |  |  |
| CON=C(C)CC1CC(OC(=O)COc2ccc(C(C)=O)cc2)=C(c2c(C)cc(C)cc2C)C1=O (stereo not drawn) [1-080] |  |  |  |  |  |  | 5 (Herbicidal ratio of 90% or more (almost completely withered)) | 0 (Herbicidal ratio of 5% or lower (almost no effect)) | 5 (Herbicidal ratio of 90% or more (almost completely withered)) | 5 (Herbicidal ratio of 90% or more (almost completely withered)) | 5 (Herbicidal ratio of 90% or more (almost completely withered)) | 4 (Herbicidal ratio of 70% or higher and lower than 90%) | 5 (Herbicidal ratio of 90% or more (almost completely withered)) |  |  |  |  |  |  |  |
| CON=C(C)CC1CC(OC(=O)COc2ccc(I)cc2)=C(c2c(C)cc(C)cc2C)C1=O (stereo not drawn) [1-082] |  |  |  |  |  |  | 5 (Herbicidal ratio of 90% or more (almost completely withered)) | 0 (Herbicidal ratio of 5% or lower (almost no effect)) | 5 (Herbicidal ratio of 90% or more (almost completely withered)) | 5 (Herbicidal ratio of 90% or more (almost completely withered)) | 5 (Herbicidal ratio of 90% or more (almost completely withered)) | 5 (Herbicidal ratio of 90% or more (almost completely withered)) | 5 (Herbicidal ratio of 90% or more (almost completely withered)) |  |  |  |  |  |  |  |
| CON=C(C)CC1CC(OC(=O)COCC(F)(F)F)=C(c2c(C)cc(C)cc2C)C1=O (stereo not drawn) [1-092] |  |  |  |  |  |  | 5 (Herbicidal ratio of 90% or more (almost completely withered)) | 3 (Herbicidal ratio of 40% or higher and lower than 70%) | 5 (Herbicidal ratio of 90% or more (almost completely withered)) | 5 (Herbicidal ratio of 90% or more (almost completely withered)) | 5 (Herbicidal ratio of 90% or more (almost completely withered)) | 3 (Herbicidal ratio of 40% or higher and lower than 70%) | 5 (Herbicidal ratio of 90% or more (almost completely withered)) |  |  |  |  |  |  |  |
| CC(=O)CC1CC(O)=C(c2c(C)cc(-c3ccc(OC(F)(F)F)cc3)cc2C)C1=O (stereo not drawn) [7-016] |  |  |  |  |  |  |  |  |  |  |  |  |  | 0 (Herbicidal ratio of 5% or lower (almost no effect)) | 0 (Herbicidal ratio of 5% or lower (almost no effect)) | 2 (Herbicidal ratio of 20% or higher and lower than 40%) | 0 (Herbicidal ratio of 5% or lower (almost no effect)) | 0 (Herbicidal ratio of 5% or lower (almost no effect)) | 0 (Herbicidal ratio of 5% or lower (almost no effect)) | 0 (Herbicidal ratio of 5% or lower (almost no effect)) |
| CON=C(CC1CC(O)=C(c2c(C)cc(Br)cc2C)C1=O)C(C)C (stereo not drawn) [9-001] | 0 (Herbicidal ratio of 5% or lower (almost no effect)) |  |  | 5 (Herbicidal ratio of 90% or more (almost completely withered)) | 3 (Herbicidal ratio of 40% or higher and lower than 70%) | 3 (Herbicidal ratio of 40% or higher and lower than 70%) | 0 (Herbicidal ratio of 5% or lower (almost no effect)) |  |  |  |  |  |  |  | 0 (Herbicidal ratio of 5% or lower (almost no effect)) | 5 (Herbicidal ratio of 90% or more (almost completely withered)) |  |  |  |  |
| CON=C(CC1CC(O)=C(c2c(C)cc(C#C[Si](C)(C)C)cc2C)C1=O)C(C)C (stereo not drawn) [9-005] | 0 (Herbicidal ratio of 5% or lower (almost no effect)) |  |  | 5 (Herbicidal ratio of 90% or more (almost completely withered)) | 5 (Herbicidal ratio of 90% or more (almost completely withered)) | 4 (Herbicidal ratio of 70% or higher and lower than 90%) | 0 (Herbicidal ratio of 5% or lower (almost no effect)) |  |  |  |  |  |  |  | 0 (Herbicidal ratio of 5% or lower (almost no effect)) | 0 (Herbicidal ratio of 5% or lower (almost no effect)) |  |  |  |  |
